# From ChEMBL document CHEMBL5034009, “Second-Generation Dual FXR/sEH Modulators with Optimized Pharmacokinetics” (J Med Chem, 2021)
# Calls of active or inactive are those of the source. The rule behind the calls is not given here.
# System: HepG2
# Assay: Effect on FXR regulated gene expression in human HepG2 cells assessed as induction of SREBP1c expression at 1 uM after 8 hrs by qRT-PCR analysis
# Settings: not given
row,SMILES,Activity
1,CC(C)(O)c1ccc(C(=O)NCc2ccc(NS(C)(=O)=O)cc2Cl)cc1,inactive

# System: HepG2
# Assay: Effect on FXR regulated gene expression in human HepG2 cells assessed as induction of PPARalpha expression at 1 uM after 8 hrs by qRT-PCR analysis
# Settings: not given
row,SMILES,Activity
1,CC(C)(O)c1ccc(C(=O)NCc2ccc(NS(C)(=O)=O)cc2Cl)cc1,inactive

# Biological target: T1, Bile acid receptor (Homo sapiens, UniProt Q96RI1)
# T1 sequence (Q96RI1 whole entry): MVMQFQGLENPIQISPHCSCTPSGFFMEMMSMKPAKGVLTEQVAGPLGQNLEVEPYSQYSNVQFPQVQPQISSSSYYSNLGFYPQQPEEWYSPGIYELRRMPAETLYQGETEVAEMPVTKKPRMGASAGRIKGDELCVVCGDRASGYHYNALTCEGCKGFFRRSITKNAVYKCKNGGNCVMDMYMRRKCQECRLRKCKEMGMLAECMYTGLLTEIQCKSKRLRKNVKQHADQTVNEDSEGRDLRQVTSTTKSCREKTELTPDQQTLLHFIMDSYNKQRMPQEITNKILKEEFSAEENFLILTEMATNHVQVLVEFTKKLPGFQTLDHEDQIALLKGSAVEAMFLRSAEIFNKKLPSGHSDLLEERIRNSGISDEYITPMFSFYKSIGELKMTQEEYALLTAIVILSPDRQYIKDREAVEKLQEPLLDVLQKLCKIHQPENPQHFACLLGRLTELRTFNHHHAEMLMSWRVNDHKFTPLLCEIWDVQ
# Assay: not given
# Settings: hela
row,SMILES,EC50
1,CS(=O)(=O)Nc1ccc(CNC(=O)c2ccc(C3(O)CC3)cc2)c(Cl)c1,Nd(Unstable)

# System: not listed separately
# Assay: Cmax in CD-1 mouse plasma at 10 mg/kg, po administered as single dose by LC-MS analysis
# Format: ADME, organism-based
# Set-up: route oral, dose 10 mg/kg
# Settings: not given
row,SMILES,Cmax [µg/mL]
1,CS(=O)(=O)Nc1ccc(CNC(=O)c2ccc(C(F)(F)F)cc2)c(Cl)c1,4.93

# System: not listed separately
# Assay: Tmax in CD-1 mouse plasma at 10 mg/kg, po administered as single dose by LC-MS analysis
# Format: ADME, organism-based
# Settings: not given
row,SMILES,Tmax [h]
1,CS(=O)(=O)Nc1ccc(CNC(=O)c2ccc(C(F)(F)F)cc2)c(Cl)c1,1

# System: not listed separately
# Assay: Metabolic stability in Sprague-Dawley rat liver microsomes assessed as intrinsic clearance at 10 uM preincubated with NADPH regenerating system for 5 mins followed by addition of microsome upto 60 mins by HPLC analysis
# Format: ADME
# Settings: read-out: CLH
row,SMILES,microsomal CLint at 10 µM [µL/min/mg]
1,CS(=O)(=O)Nc1ccc(CNC(=O)c2ccc(N3CCOCC3)cc2)c(Cl)c1,4.1
2,CC(C)(C)c1ccc(C(=O)NCc2c(Cl)cc(NS(C)(=O)=O)cc2Cl)cc1,16
3,CN(C)c1ccc(C(=O)NCc2ccc(NS(C)(=O)=O)cc2Cl)cc1,25
4,CCOc1ccc(C(=O)NCc2ccc(NS(C)(=O)=O)cc2Cl)cc1,12
5,CS(=O)(=O)Nc1ccc(CNC(=O)c2ccc(N3CCCCC3)cc2)c(Cl)c1,20
6,CC(C)(O)c1ccc(C(=O)NCc2ccc(NS(C)(=O)=O)cc2Cl)cc1,1.5

# The next lines start with the values.
row,microsomal CLint at 10 µM [µL/min/mg],SMILES
1,47,CC(C)(C)c1ccc(C(=O)NCc2ccc(NS(C)(=O)=O)cc2F)cc1
2,41,CC(C)(C)c1ccc(C(=O)NCc2ccc(NS(=O)(=O)C3CC3)cc2Cl)cc1
3,14,CS(=O)(=O)Nc1ccc(CNC(=O)c2ccc(C(F)(F)C(F)(F)F)cc2)c(Cl)c1
4,17,CC(C)(C)c1ccc(C(=O)NCc2ccc(NS(=O)(=O)C(F)(F)F)cc2Cl)cc1
5,9.6,CC(F)(F)c1ccc(C(=O)NCc2ccc(NS(C)(=O)=O)cc2Cl)cc1
6,24,COC(C)(C)c1ccc(C(=O)NCc2ccc(NS(C)(=O)=O)cc2Cl)cc1
7,9.6,CS(=O)(=O)Nc1ccc(CNC(=O)c2ccc(C(F)(F)F)cc2)c(Cl)c1

# Biological target: T2, Bile acid receptor (Homo sapiens) (UniProt Q96RI1)
# T2 sequence (whole entry): T1 sequence (Q96RI1 whole entry)
# Assay: Agonist activity at recombinant human full-length FXR expressed in HeLa cells co-expressing human RXRalpha at 30 uM after 24 hrs by Dual-Glo luciferase assay
# Format: cell-based
# Settings: not given
row,SMILES,Activity
1,CC(C)(C)c1ccc(C(=O)NCc2c(Cl)cc(NS(C)(=O)=O)cc2Cl)cc1,inactive
2,CC(C)(C)c1ccc(C(=O)NCc2ccc(NS(C)(=O)=O)cc2F)cc1,inactive
3,CC(C)(C)c1ccc(C(=O)NCc2ccc(NS(=O)(=O)C(F)(F)F)cc2Cl)cc1,inactive
4,COC(C)(C)c1ccc(C(=O)NCc2ccc(NS(C)(=O)=O)cc2Cl)cc1,inactive

# Biological target: T1, Bile acid receptor
# Assay: not given
# Settings: not given
row,SMILES,EC50 [µM]
1,CS(=O)(=O)Nc1ccc(CNC(=O)c2ccc(N3CCOCC3)cc2)c(Cl)c1,4.4
2,CCOc1ccc(C(=O)NCc2ccc(NS(C)(=O)=O)cc2Cl)cc1,2.2
3,CS(=O)(=O)Nc1ccc(CNC(=O)c2ccc(N3CCCCC3)cc2)c(Cl)c1,0.41
4,CC(C)(O)c1ccc(C(=O)NCc2ccc(NS(C)(=O)=O)cc2Cl)cc1,0.032

# The remaining lines, values ahead:
row,EC50 [µM],SMILES
1,1.5,CC(C)(C)c1ccc(C(=O)NCc2ccc(NS(=O)(=O)C3CC3)cc2Cl)cc1
2,3.22,CS(=O)(=O)Nc1ccc(CNC(=O)c2ccc(C(F)(F)C(F)(F)F)cc2)c(Cl)c1
3,1.2,CC(F)(F)c1ccc(C(=O)NCc2ccc(NS(C)(=O)=O)cc2Cl)cc1

# Biological target: T3, Bifunctional epoxide hydrolase 2 (Homo sapiens, UniProt P34913)
# T3 sequence (P34913 whole entry): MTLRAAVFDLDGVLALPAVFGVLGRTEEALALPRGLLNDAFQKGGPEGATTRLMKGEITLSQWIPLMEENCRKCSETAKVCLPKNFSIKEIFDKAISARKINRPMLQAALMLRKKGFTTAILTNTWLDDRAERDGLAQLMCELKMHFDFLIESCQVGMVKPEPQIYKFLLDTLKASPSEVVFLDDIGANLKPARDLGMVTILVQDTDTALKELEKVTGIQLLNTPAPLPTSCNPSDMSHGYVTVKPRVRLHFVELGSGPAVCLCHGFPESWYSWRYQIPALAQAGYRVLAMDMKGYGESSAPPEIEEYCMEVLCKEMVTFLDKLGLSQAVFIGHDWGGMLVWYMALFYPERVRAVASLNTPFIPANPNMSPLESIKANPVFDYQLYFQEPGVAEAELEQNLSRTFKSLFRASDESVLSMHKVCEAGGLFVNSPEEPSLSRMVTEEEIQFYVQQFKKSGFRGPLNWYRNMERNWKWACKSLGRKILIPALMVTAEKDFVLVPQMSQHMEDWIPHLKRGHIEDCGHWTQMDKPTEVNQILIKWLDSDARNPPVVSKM
# Assay: Inhibition of recombinant human sEH using PHOME as substrate preincubated for 30 mins followed by substrate addition and measured after 30 mins by fluoresence-based assay
# Settings: not given
row,SMILES,IC50 [µM]
1,CS(=O)(=O)Nc1ccc(CNC(=O)c2ccc(N3CCOCC3)cc2)c(Cl)c1,0.175
2,CC(C)(C)c1ccc(C(=O)NCc2c(Cl)cc(NS(C)(=O)=O)cc2Cl)cc1,0.268
3,CCOc1ccc(C(=O)NCc2ccc(NS(C)(=O)=O)cc2Cl)cc1,0.031
4,CS(=O)(=O)Nc1ccc(CNC(=O)c2ccc(N3CCCCC3)cc2)c(Cl)c1,0.071
5,CC(C)(O)c1ccc(C(=O)NCc2ccc(NS(C)(=O)=O)cc2Cl)cc1,0.17

# Next, values leading:
row,IC50 [µM],SMILES
1,0.016,CC(C)(C)c1ccc(C(=O)NCc2ccc(NS(C)(=O)=O)cc2F)cc1
2,0.0078,CC(C)(C)c1ccc(C(=O)NCc2ccc(NS(=O)(=O)C3CC3)cc2Cl)cc1
3,0.004,CS(=O)(=O)Nc1ccc(CNC(=O)c2ccc(C(F)(F)C(F)(F)F)cc2)c(Cl)c1
4,0.021,CC(C)(C)c1ccc(C(=O)NCc2ccc(NS(=O)(=O)C(F)(F)F)cc2Cl)cc1
5,0.002,CC(F)(F)c1ccc(C(=O)NCc2ccc(NS(C)(=O)=O)cc2Cl)cc1
6,0.009,COC(C)(C)c1ccc(C(=O)NCc2ccc(NS(C)(=O)=O)cc2Cl)cc1
7,0.007,CS(=O)(=O)Nc1ccc(CNC(=O)c2ccc(C(F)(F)F)cc2)c(Cl)c1

# System: not listed separately
# Assay: Metabolic stability in Sprague-Dawley rat liver microsomes assessed as half life at 10 uM preincubated with NADPH regenerating system for 5 mins followed by addition of microsome upto 60 mins by HPLC analysis
# Format: ADME
# Settings: not given
row,SMILES,half-life at 10 µM [h]
1,CS(=O)(=O)Nc1ccc(CNC(=O)c2ccc(N3CCOCC3)cc2)c(Cl)c1,5.72
2,CC(C)(C)c1ccc(C(=O)NCc2c(Cl)cc(NS(C)(=O)=O)cc2Cl)cc1,1.37
3,CN(C)c1ccc(C(=O)NCc2ccc(NS(C)(=O)=O)cc2Cl)cc1,0.883
4,CCOc1ccc(C(=O)NCc2ccc(NS(C)(=O)=O)cc2Cl)cc1,1.8
5,CS(=O)(=O)Nc1ccc(CNC(=O)c2ccc(N3CCCCC3)cc2)c(Cl)c1,1.12
6,CC(C)(O)c1ccc(C(=O)NCc2ccc(NS(C)(=O)=O)cc2Cl)cc1,20.2

# Now from value to molecule:
row,half-life at 10 µM [h],SMILES
1,0.483,CC(C)(C)c1ccc(C(=O)NCc2ccc(NS(C)(=O)=O)cc2F)cc1
2,0.55,CC(C)(C)c1ccc(C(=O)NCc2ccc(NS(=O)(=O)C3CC3)cc2Cl)cc1
3,1.6,CS(=O)(=O)Nc1ccc(CNC(=O)c2ccc(C(F)(F)C(F)(F)F)cc2)c(Cl)c1
4,1.3,CC(C)(C)c1ccc(C(=O)NCc2ccc(NS(=O)(=O)C(F)(F)F)cc2Cl)cc1
5,2.35,CC(F)(F)c1ccc(C(=O)NCc2ccc(NS(C)(=O)=O)cc2Cl)cc1
6,0.917,COC(C)(C)c1ccc(C(=O)NCc2ccc(NS(C)(=O)=O)cc2Cl)cc1
7,2.43,CS(=O)(=O)Nc1ccc(CNC(=O)c2ccc(C(F)(F)F)cc2)c(Cl)c1

# System: HepG2
# Assay: Cytotoxicity against human HepG2 cells assessed as cell viability at 100 uM by WST-1 assay
# Format: cell-based
# Settings: hepg2, 100 µM
row,SMILES,Activity
1,CS(=O)(=O)Nc1ccc(CNC(=O)c2ccc(C(F)(F)F)cc2)c(Cl)c1,Non-Toxic
2,CC(C)(O)c1ccc(C(=O)NCc2ccc(NS(C)(=O)=O)cc2Cl)cc1,Non-Toxic

# System: not listed separately
# Assay: Aqueous solubility of compound
# Format: physicochemical
# Settings: buffer
row,SMILES,solubility [mg/mL]
1,CS(=O)(=O)Nc1ccc(CNC(=O)c2ccc(C(F)(F)F)cc2)c(Cl)c1,0.0057
2,CC(C)(O)c1ccc(C(=O)NCc2ccc(NS(C)(=O)=O)cc2Cl)cc1,0.048

# System: not listed separately
# Assay: Half life in CD-1 mouse plasma at 10 mg/kg, po administered as single dose by LC-MS analysis
# Format: ADME, organism-based
# Settings: not given
row,SMILES,half-life [h]
1,CS(=O)(=O)Nc1ccc(CNC(=O)c2ccc(C(F)(F)F)cc2)c(Cl)c1,5.2
